ChEMBL document CHEMBL1641539 (Bioorg Med Chem Lett, 2011)

Experiments:
[1] = molecular target: Tyrosine-protein kinase Lyn (Homo sapiens) (UniProt P07948); test: Inhibition of human Lyn at 10 uM after 60 mins by TR-FRET assay; details: values are per cent of control
[2] = molecular target: Tyrosine-protein kinase receptor TYRO3 (Homo sapiens) (UniProt Q06418); test: Inhibition of human Rse at 10 uM after 60 mins by TR-FRET assay; details: values are per cent of control
[3] = molecular target: Ribosomal protein S6 kinase alpha-2 (Homo sapiens) (UniProt Q15349); test: Inhibition of human Rsk3 at 10 uM after 60 mins by TR-FRET assay; details: values are per cent of control
[4] = molecular target: Cyclin-dependent kinase 1/cyclin B (Homo sapiens) (UniProt P06493+P14635+Q8WWL7+O95067); test: Residual activity of human CDK1/cyclinB at 10 uM after 60 mins by TR-FRET assay
[5] = molecular target: Proto-oncogene tyrosine-protein kinase ROS (Homo sapiens) (UniProt P08922); test: Inhibition of human Ros at 10 uM after 60 mins by TR-FRET assay; values are per cent of control
Chain of Proto-oncogene tyrosine-protein kinase ROS (Homo sapiens) (P08922 whole entry): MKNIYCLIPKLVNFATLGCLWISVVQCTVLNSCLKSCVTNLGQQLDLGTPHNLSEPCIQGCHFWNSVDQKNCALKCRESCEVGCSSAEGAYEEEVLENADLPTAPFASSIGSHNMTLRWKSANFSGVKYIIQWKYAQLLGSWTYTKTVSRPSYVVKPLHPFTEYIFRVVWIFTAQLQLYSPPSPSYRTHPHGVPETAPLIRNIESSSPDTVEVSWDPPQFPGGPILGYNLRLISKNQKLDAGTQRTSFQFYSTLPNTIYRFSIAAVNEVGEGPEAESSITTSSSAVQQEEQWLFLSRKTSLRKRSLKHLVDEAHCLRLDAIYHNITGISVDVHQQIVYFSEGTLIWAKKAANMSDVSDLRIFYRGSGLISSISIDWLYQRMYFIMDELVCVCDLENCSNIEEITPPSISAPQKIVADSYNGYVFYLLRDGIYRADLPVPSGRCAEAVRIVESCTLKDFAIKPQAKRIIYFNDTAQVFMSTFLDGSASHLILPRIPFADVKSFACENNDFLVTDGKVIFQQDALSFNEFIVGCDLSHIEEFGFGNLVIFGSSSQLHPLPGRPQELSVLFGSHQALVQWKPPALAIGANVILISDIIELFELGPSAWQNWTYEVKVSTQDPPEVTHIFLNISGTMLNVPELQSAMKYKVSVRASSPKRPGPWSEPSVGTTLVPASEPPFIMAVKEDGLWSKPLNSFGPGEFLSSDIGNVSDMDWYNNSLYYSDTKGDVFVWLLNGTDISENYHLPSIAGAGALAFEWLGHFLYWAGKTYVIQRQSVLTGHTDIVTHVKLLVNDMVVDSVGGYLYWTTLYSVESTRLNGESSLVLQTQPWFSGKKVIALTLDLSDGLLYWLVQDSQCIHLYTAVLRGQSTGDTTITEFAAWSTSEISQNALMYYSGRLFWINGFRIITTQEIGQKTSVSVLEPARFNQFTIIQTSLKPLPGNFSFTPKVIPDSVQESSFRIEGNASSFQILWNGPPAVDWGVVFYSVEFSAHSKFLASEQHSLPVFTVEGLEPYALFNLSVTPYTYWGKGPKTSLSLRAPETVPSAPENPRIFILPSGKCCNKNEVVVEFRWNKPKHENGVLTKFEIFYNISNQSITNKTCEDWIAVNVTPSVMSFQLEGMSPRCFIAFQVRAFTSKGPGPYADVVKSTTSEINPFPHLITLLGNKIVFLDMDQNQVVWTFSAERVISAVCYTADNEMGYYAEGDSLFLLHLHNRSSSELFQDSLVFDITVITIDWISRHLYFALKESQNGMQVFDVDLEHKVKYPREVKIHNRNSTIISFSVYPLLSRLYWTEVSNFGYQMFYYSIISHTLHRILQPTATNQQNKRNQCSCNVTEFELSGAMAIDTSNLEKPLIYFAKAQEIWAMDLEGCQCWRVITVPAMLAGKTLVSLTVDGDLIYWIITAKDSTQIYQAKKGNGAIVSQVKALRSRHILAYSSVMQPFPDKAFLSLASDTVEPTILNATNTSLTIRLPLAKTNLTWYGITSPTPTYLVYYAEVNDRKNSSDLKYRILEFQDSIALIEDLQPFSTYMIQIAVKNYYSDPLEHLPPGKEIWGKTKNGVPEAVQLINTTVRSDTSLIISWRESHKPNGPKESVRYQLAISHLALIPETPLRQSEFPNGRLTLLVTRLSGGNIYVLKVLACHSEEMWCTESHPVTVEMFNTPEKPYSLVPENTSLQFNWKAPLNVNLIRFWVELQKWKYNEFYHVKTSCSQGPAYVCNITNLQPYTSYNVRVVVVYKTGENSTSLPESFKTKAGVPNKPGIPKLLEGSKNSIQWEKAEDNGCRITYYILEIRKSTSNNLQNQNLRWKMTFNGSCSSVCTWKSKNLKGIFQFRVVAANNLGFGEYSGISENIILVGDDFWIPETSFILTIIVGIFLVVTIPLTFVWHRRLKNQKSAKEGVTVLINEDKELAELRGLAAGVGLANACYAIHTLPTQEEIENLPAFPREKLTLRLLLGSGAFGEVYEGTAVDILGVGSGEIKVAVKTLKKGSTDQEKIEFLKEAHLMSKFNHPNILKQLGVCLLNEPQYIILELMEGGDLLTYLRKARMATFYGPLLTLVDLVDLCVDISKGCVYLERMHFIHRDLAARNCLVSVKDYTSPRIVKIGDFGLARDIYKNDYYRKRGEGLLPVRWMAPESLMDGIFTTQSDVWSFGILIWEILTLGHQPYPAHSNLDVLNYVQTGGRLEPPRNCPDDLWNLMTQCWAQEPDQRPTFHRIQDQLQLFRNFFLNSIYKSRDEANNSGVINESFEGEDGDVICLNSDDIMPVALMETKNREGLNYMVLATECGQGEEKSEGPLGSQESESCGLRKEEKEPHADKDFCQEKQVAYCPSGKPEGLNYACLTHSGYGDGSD

[6] = molecular target: Cytoplasmic tyrosine-protein kinase BMX (Homo sapiens) (UniProt P51813); test: Inhibition of human Bmx at 10 uM after 60 mins by TR-FRET assay; values are per cent of control
[7] = molecular target: Casein kinase II (Homo sapiens) (UniProt P67870+P68400+P19784); test: Inhibition of human CK2 at 10 uM after 60 mins by TR-FRET assay; values are per cent of control
[8] = molecular target: BDNF/NT-3 growth factors receptor (Homo sapiens) (UniProt Q16620); test: Inhibition of human TrkB at 10 uM after 60 mins by TR-FRET assay; values are per cent of control
[9] = molecular target: Homeodomain-interacting protein kinase 2 (Homo sapiens) (UniProt Q9H2X6); test: Inhibition of human HIPK2 at 10 uM after 60 mins by TR-FRET assay; values are per cent of control
[10] = molecular target: Rho-associated protein kinase 1 (Homo sapiens) (UniProt Q13464); test: Inhibition of human ROCK-1 at 10 uM after 60 mins by TR-FRET assay; values are per cent of control
[11] = molecular target: Inhibitor of nuclear factor kappa-B kinase subunit beta (Homo sapiens) (UniProt O14920); test: Inhibition of human IKK-beta at 10 uM after 60 mins by TR-FRET assay; values are per cent of control
Chain of Inhibitor of nuclear factor kappa-B kinase subunit beta (Homo sapiens) (O14920 whole entry): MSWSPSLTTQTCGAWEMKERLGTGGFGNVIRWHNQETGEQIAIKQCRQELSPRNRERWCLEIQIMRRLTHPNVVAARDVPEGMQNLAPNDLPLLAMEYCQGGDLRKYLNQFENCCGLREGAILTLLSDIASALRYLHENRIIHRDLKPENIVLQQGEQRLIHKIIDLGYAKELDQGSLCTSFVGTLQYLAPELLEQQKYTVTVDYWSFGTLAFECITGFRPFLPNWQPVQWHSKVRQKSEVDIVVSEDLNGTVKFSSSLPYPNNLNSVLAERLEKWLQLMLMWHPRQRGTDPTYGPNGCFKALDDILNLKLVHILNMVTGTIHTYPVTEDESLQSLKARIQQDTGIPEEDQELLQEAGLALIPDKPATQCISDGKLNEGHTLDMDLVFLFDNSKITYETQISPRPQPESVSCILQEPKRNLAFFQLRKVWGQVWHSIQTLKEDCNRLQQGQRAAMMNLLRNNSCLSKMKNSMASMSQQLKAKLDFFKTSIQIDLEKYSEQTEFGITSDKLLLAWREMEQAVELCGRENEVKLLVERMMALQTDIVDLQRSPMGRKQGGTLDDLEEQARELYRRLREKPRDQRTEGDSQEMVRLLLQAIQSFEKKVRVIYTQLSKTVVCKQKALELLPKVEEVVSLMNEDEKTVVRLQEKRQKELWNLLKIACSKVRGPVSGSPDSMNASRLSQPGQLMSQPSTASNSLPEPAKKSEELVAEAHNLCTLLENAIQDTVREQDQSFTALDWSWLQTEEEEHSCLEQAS

[12] = molecular target: Calcium/calmodulin-dependent protein kinase type II subunit beta (Homo sapiens) (UniProt Q13554); test: Inhibition of human CaMK2beta at 10 uM after 60 mins by TR-FRET assay; values are per cent of control
[13] = test system: Tyrosine-protein kinase ABL1 (Homo sapiens), P00519 [Y253F]; test: Inhibition of human Abl Y253F mutant at 10 uM after 60 mins by TR-FRET assay; values are per cent of control
[14] = test system: Receptor-type tyrosine-protein kinase FLT3 (Homo sapiens), P36888 [D835Y]; test: Inhibition of human Flt3 D835Y mutant at 10 uM after 60 mins by TR-FRET assay; values are per cent of control
[15] = test system: Angiopoietin-1 receptor (Homo sapiens), Q02763 [R849W]; test: Inhibition of human Tie2 R849W mutant at 10 uM after 60 mins by TR-FRET assay; values are per cent of control
Chain of Angiopoietin-1 receptor (Homo sapiens), Q02763 [R849W] (Q02763 whole entry R849W): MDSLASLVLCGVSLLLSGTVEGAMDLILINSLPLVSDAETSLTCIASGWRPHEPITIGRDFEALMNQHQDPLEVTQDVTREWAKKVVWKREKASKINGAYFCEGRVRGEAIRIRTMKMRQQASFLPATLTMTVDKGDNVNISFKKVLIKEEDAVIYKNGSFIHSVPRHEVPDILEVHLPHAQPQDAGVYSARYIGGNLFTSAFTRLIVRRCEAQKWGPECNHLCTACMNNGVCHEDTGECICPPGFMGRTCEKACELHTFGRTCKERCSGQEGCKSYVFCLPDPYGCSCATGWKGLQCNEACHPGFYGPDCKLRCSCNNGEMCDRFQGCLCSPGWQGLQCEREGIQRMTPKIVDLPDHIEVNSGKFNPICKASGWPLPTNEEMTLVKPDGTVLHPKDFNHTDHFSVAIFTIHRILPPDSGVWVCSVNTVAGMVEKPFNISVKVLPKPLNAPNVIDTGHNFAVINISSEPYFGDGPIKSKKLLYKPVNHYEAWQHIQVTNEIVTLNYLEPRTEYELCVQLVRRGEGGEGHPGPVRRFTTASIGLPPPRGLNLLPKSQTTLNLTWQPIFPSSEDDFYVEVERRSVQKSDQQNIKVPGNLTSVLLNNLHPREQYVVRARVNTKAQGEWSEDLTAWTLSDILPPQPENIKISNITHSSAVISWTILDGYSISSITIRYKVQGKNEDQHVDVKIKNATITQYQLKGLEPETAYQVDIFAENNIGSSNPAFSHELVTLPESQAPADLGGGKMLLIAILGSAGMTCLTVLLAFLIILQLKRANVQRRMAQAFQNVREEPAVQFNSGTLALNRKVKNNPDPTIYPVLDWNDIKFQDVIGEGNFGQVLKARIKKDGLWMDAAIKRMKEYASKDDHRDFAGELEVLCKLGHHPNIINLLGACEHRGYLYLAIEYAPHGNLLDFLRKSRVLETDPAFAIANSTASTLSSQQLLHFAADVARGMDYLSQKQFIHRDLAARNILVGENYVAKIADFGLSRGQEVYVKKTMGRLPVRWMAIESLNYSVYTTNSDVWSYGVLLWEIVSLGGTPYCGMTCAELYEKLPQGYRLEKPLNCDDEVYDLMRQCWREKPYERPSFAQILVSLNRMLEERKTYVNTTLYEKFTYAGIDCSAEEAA

[16] = test system: Platelet-derived growth factor receptor alpha (Homo sapiens), P16234 [D842V]; test: Inhibition of human PDGFRalpha D842V mutant at 10 uM after 60 mins by TR-FRET assay; values are per cent of control

Chain of Tyrosine-protein kinase Lyn (Homo sapiens) (P07948 2-512 limits assumed): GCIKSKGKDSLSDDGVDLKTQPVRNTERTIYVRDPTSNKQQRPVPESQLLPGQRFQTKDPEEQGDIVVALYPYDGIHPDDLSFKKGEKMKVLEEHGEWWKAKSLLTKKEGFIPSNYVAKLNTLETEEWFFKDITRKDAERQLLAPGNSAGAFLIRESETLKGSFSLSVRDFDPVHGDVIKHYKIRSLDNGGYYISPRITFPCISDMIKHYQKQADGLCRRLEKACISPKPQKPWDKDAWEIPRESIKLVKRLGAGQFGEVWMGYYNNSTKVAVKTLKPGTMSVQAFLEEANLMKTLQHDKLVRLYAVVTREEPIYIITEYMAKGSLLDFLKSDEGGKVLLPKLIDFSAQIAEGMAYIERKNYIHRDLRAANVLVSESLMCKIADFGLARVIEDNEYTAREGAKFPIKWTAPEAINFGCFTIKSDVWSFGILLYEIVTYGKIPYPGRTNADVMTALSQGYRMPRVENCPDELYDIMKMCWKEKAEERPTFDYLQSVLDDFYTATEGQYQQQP

residual activity [1]: 102%
residual activity [2]: 116%
residual activity [3]: 90%
residual activity [4]: 101%
residual activity [5]: 100%
residual activity [6]: 136%
residual activity [7]: 110%
residual activity [8]: 114%
residual activity [9]: 95%
residual activity [10]: 110%
residual activity [11]: 94%
residual activity [12]: 113%
residual activity [13]: 105%
residual activity [14]: 99%
residual activity [15]: 94%
residual activity [16]: 122%
SMILES: S=c1[nH]nc(-c2ccncc2)n1-c1ccc2ccccc2c1
